# Source: patent US20040106644A1, “Composition for treatment of night sight problems(halos, comas and glare) after refractive surgery, intra ocular lens implant after lensectomy or intraocular implant in phakic patients comprising aceclidine employed at low concentrations” (priority 2001, published 2004)
# Assays:
# [1] = test system: patients who underwent refractive surgery; experiment: double-masked randomized clinical trial on night sight problems (halos, coma, glare) after refractive surgery; type: in vivo, human
# Description: A double-masked randomized clinical trial with 14 patients (27 eyes) has been organized by dividing the patients in three different groups: 8 patients were treated with placebo, 10 patients were treated with a first ophthalmic composition (I dilution), 9 patients were treated with a second ophthalmic composition (II dilution).
# The patients belonging to this trial had to go through an ophthalmic examination: of the haze grading and of natural and corrected visual acuity, intra ocular pressure (IOP), pupillometry in mesopic conditions with split lamp and examination of corneal maps. The anamnestic data about the surgical operation were collected: the refractive surgery technique employed (PRK/LASIK), the date of the surgical operation, data about the corrected optical zone and the ametropy kind. The night sight problems had to be stable for at least three months after the surgical operation for the patient to be included in the trial.
# The patients had to identify the image they perceived before and during the pharmacological treatment, with follow-up examinations fixed every 15-30 days. At the end of the clinical trial the patients had to provide information about the efficacy and duration (in terms of hours) of the treatment, onset time of the effect, changes of the visual capabilities and side effects, if any.
# The ophthalmic compositions were prepared according to the following procedure:
# I dilution, 4 IU of aceclidine 2% were diluted in 5 mL of hyaluronic acid (0.200 g/100 mL)
# II dilution, 8 IU of aceclidine 2% were diluted in 5 mL of hyaluronic acid (0.200 g/100 mL)
# Placebo consisted in 5 mL of hyaluronic acid (0.200 g/100 mL).
# The three ophthalmic compositions (I dilution, II dilution and placebo) were administered to the 14 patients belonging to the clinical trial in a blind way.
# [2] = test system: healthy people; experiment: pupillary diameter after instillation in healthy people; type: in vivo, human; settings: ophthalmic composition with aceclidine in very low concentrations, for four to six hours (summary statement)
# Description: The two ophthalmic compositions, I and II dilution, were administered firstly to a group of healthy people: one eye was treated with the I dilution composition (0.016%), the second eye with the II dilution composition (0.032%), measuring the pupillary diameter in the same light conditions at 30 minutes, 1-2-3-4-5-6 hours after the first instillation.
# [3] = patients treated with refractive surgery, aceclidine in very low concentrations (summary statement)
smiles,measurement,setting,value
"CC(=O)OC1CN2CCC1CC2 (stereo not drawn) [aceclidine, 3-acetoxyquinuclidine]",side effects in the effective concentration range,[1]; aceclidine 0.016% to 0.040% of total weight,no relevant side effects are detectable
same,duration of action after instillation,"[1]; aceclidine 0.016% to 0.040%, instilled 10-20 minutes before need (summary statement)",4 to 6 h
same,"duration of light, transitory conjunctival hyperemia",[1]; [3],5 to 10 min
same,headache or sight reduction,[1]; [3],no headache or sight reduction
same,"improvement of halos, coma and glare",[1]; [3],statistically significant improvement
same,pupil diameter reduction,[2],2-3 mm
